Activity calls are given as the source filed them. The calls are words filed in the database; no cut-off is given here.
Key:
[1] = Cytotoxicity against human MRC5 cells assessed as inhibition of cell growth incubated for 72 hrs by MTS assay; type: toxicity, cell-based
CCRF-CEM [2] = experiment: Induction of apoptosis in human CCRF-CEM cells assessed as decrease in cell number at 1 times IC50 concentration incubated for 24 to 74 hrs by annexin V FITC/propidium iodide staining based flow cytometry; type: functional; conditions: time 24-74 hrs
CCRF-CEM [3] = experiment: Induction of apoptosis in human CCRF-CEM cells assessed as viable cells at 5 times IC50 concentration incubated for 24 hrs by annexin V FITC/propidium iodide staining based flow cytometry (reference value: 96 %); type: functional
CCRF-CEM [4] = experiment: Induction of apoptosis in human CCRF-CEM cells assessed as decrease in Rb phosphorylation level at Ser807/811 at 5 times IC50 concentration incubated for 24 hrs by western blot assay; type: functional, cell-based
[5] = Apparent permeability across apical to basolateral side in dog MDCK-MDR1 cells assessed as drug recovery incubated for 1 hr by high-throughput spectrometric analysis; type: ADME, cell-based, Canis lupus familiaris; conditions: read-out: Drug recovery
[6] = Apparent permeability across apical to basolateral side in human Caco-2 cells incubated for 2 hr by high-throughput spectrometric analysis; type: ADME, cell-based
[7] = Chemical stability of the compound in PBS buffer assessed as compound remaining at pH 7.4 at 2 uM measured after 15 mins by RF-MS analysis; type: physicochemical; conditions: read-out: Stability
[8] = Apparent permeability across apical to basolateral side in human Caco-2 cells assessed as drug recovery incubated for 2 hr by high-throughput spectrometric analysis; type: ADME, cell-based; conditions: read-out: Drug recovery
[9] = Cytotoxicity against human BJ cells assessed as inhibition of cell growth incubated for 72 hrs by MTS assay; type: toxicity, cell-based
HCT-116 = experiment: Cytotoxicity against human HCT-116 cells assessed as inhibition of cell growth incubated for 72 hrs by MTS assay; type: functional, cell-based; conditions: HCT-116, 72 h
[10] = Cytotoxicity against human K562-Tax cells assessed as inhibition of cell growth incubated for 72 hrs by MTS assay; type: functional, cell-based
CCRF-CEM [11] = experiment: Induction of apoptosis in human CCRF-CEM cells assessed as late apoptotic cells at 5 times IC50 concentration incubated for 24 hrs by annexin V FITC/propidium iodide staining based flow cytometry (reference value: 1.4 %); type: functional
[12] = Efflux ratio of apparent permeability from basolateral to apical side over apical to basolateral side in dog MDCK-MDR1 cells incubated for 1 hr by high-throughput spectrometric analysis; type: ADME, cell-based, Canis lupus familiaris
A549 = experiment: Cytotoxicity against human A549 cells assessed as inhibition of cell growth incubated for 72 hrs by MTS assay; type: functional, cell-based; conditions: A549, 72 h
[13] = Plasma stability in human assessed as compound remaining at 2 uM measured after 120 mins by RF-MS analysis; type: ADME, cell-free; conditions: read-out: Stability
[14] = Efflux ratio of apparent permeability from basolateral to apical side over apical to basolateral side in human Caco-2 cells incubated for 2 hr by high-throughput spectrometric analysis; type: ADME, cell-based
CCRF-CEM [15] = experiment: Induction of cell cycle arrest in human CCRF-CEM cells assessed as decrease of cell population at S phase at 5 times IC50 concentration incubated for 24 to 72 hrs by propidium iodide staining based flow cytometry; type: functional; conditions: time 24-72 hrs
[16] = Microsomal stability in human liver microsome as compound remaining at 2 uM measured after 30 mins in presence of NADPH by RF-MS analysis; type: ADME; conditions: liver microsomes, read-out: Stability
[17] = Apparent permeability across apical to basolateral side in dog MDCK-MDR1 cells incubated for 1 hr by high-throughput spectrometric analysis; type: ADME, cell-based, Canis lupus familiaris
CCRF-CEM [18] = experiment: Induction of apoptosis in human CCRF-CEM cells assessed as early apoptotic cells at 1 times IC50 concentration incubated for 24 hrs by annexin V FITC/propidium iodide staining based flow cytometry (reference value: 2.6 %); type: functional
[19] = Microsomal stability in human liver microsome as compound remaining at 2 uM measured after 60 mins in presence of NADPH by RF-MS analysis; type: ADME; conditions: liver microsomes, read-out: Stability
CCRF-CEM [20] = experiment: Induction of apoptosis in human CCRF-CEM cells assessed as late apoptotic cells at 1 times IC50 concentration incubated for 24 hrs by annexin V FITC/propidium iodide staining based flow cytometry (reference value: 1.4 %); type: functional
[21] = Plasma stability in human assessed as compound remaining at 2 uM measured after 15 mins by RF-MS analysis; type: ADME, cell-free; conditions: read-out: Stability
CCRF-CEM [22] = experiment: Induction of apoptosis in human CCRF-CEM cells assessed as effect on total Rb protein level at 1 times IC50 concentration incubated for 24 hrs by western blot assay; type: functional, cell-based
CCRF-CEM [23] = experiment: Induction of cell cycle arrest in human CCRF-CEM cells assessed as accumulation of cells at G1 phase at 1 times IC50 concentration incubated for 24 to 72 hrs by propidium iodide staining based flow cytometry; type: functional; conditions: time 24-72 hrs
CCRF-CEM [24] = experiment: Induction of apoptosis in human CCRF-CEM cells assessed as decrease in cell number at 5 times IC50 concentration incubated for 24 to 74 hrs by annexin V FITC/propidium iodide staining based flow cytometry; type: functional; conditions: time 24-74 hrs
CCRF-CEM [25] = experiment: Induction of apoptosis in human CCRF-CEM cells assessed as decrease in Rb phosphorylation level at Ser780 at 5 times IC50 concentration incubated for 24 hrs by western blot assay; type: functional, cell-based
[26] = Cytotoxicity against human p53HCT116 cells assessed as inhibition of cell growth incubated for 72 hrs by MTS assay; type: functional, cell-based; conditions: p53HCT116, 72 h
[27] = Plasma stability in human assessed as compound remaining at 2 uM measured after 60 mins by RF-MS analysis; type: ADME, cell-free; conditions: read-out: Stability
[28] = Plasma stability in human assessed as compound remaining at 2 uM measured after 30 mins by RF-MS analysis; type: ADME, cell-free; conditions: read-out: Stability
[29] = Chemical stability of the compound in PBS buffer assessed as compound remaining at pH 7.4 at 2 uM measured after 120 mins by RF-MS analysis; type: physicochemical; conditions: read-out: Stability
[30] = Plasma protein binding in human assessed as fraction bound at 10 uM incubated for 4 hrs by rapid equilibrium dialysis based RF-MS analysis; type: ADME, cell-free; conditions: read-out: PPB (converted)
CCRF-CEM [31] = experiment: Induction of cell cycle arrest in human CCRF-CEM cells assessed as accumulation of cells at G1 phase at 5 times IC50 concentration incubated for 24 to 72 hrs by propidium iodide staining based flow cytometry; type: functional; conditions: time 24-72 hrs
[32] = Microsomal stability in human liver microsome as compound remaining at 2 uM measured after 15 mins in presence of NADPH by RF-MS analysis; type: ADME; conditions: liver microsomes, read-out: Stability
[33] = Chemical stability of the compound in PBS buffer assessed as compound remaining at pH 7.4 at 2 uM measured after 30 mins by RF-MS analysis; type: physicochemical; conditions: read-out: Stability
CCRF-CEM [34] = experiment: Induction of cell cycle arrest in human CCRF-CEM cells assessed as decrease of cell population at S phase at 1 times IC50 concentration incubated for 24 to 72 hrs by propidium iodide staining based flow cytometry; type: functional; conditions: time 24-72 hrs
CEM-DNR = experiment: Cytotoxicity against human CEM-DNR cells assessed as inhibition of cell growth incubated for 72 hrs by MTS assay; type: functional, cell-based
U2OS = experiment: Cytotoxicity against human U2OS cells assessed as inhibition of cell growth incubated for 72 hrs by MTS assay; type: functional, cell-based
CCRF-CEM [35] = experiment: Induction of apoptosis in human CCRF-CEM cells assessed as early apoptotic cells at 5 times IC50 concentration incubated for 24 hrs by annexin V FITC/propidium iodide staining based flow cytometry (reference value: 2.6 %); type: functional
CCRF-CEM [36] = experiment: Induction of apoptosis in human CCRF-CEM cells assessed as viable cells at 1 times IC50 concentration incubated for 24 hrs by annexin V FITC/propidium iodide staining based flow cytometry (reference value: 96 %); type: functional
K562 = experiment: Cytotoxicity against human K562 cells assessed as inhibition of cell growth incubated for 72 hrs by MTS assay; type: functional, cell-based; conditions: K562, 72 h
[37] = Chemical stability of the compound in PBS buffer assessed as compound remaining at pH 7.4 at 2 uM measured after 60 mins by RF-MS analysis; type: physicochemical; conditions: read-out: Stability
CCRF-CEM [38] = experiment: Induction of apoptosis in human CCRF-CEM cells assessed as effect on total Rb protein level at 5 times IC50 concentration incubated for 24 hrs by western blot assay; type: functional, cell-based
CCRF-CEM [39] = experiment: Induction of apoptosis in human CCRF-CEM cells assessed as decrease in cyclin A protein expression level at 5 times IC50 concentration incubated for 24 hrs by western blot assay; type: functional, cell-based
CCRF-CEM [40] = experiment: Cytotoxicity against human CCRF-CEM cells assessed as inhibition of cell growth incubated for 72 hrs by MTS assay; type: functional, cell-based
CCRF-CEM [41] = experiment: Induction of apoptosis in human CCRF-CEM cells assessed as decrease in Bcl-2 protein expression level at 5 times IC50 concentration incubated for 24 hrs by western blot assay; type: functional, cell-based

Which IC50 at 72 h [1] does the source give for `C=C(C)[C@@H]1CC[C@]2(C(=O)O)CC[C@]3(C)[C@H](CC[C@@H]4[C@@]5(C)CC=C(c6cccc(O)c6)C(C)(C)[C@@H]5CC[C@]43C)[C@@H]12` here?
The IC50 at 72 h was 19 µM.

What about the Activity (CCRF-CEM [2]) of the same compound?
Its Activity is “Active”.

What about the Activity (CCRF-CEM [3]) of the same compound?
The Activity was 89%.

What about the Activity (CCRF-CEM [4]) of the same compound?
The Activity was “Active”.

What about the recovery at 1 h [5] of the same compound?
The recovery at 1 h was 67.6%.

And the Papp A→B at 2 h [6]?
The Papp A→B at 2 h was 2.32 ×10⁻⁶ cm/s.

And the remaining at 0.25 h, 2 µM [7]?
The remaining at 0.25 h, 2 µM was 99.6%.

What about the recovery at 2 h [8] of the same compound?
Its recovery at 2 h is 97.5%.

And the IC50 at 72 h [9]?
Its IC50 at 72 h is 31 µM.

What about the IC50 (HCT-116) of the same compound?
The IC50 was 4 µM.

And the IC50 [10]?
The IC50 was 3.8 µM.

And the Activity (CCRF-CEM [11])?
The Activity was 5%.

What about the efflux ratio at 1 h [12] of the same compound?
Its efflux ratio at 1 h is 1.29.

What about the IC50 (A549) of the same compound?
Its IC50 is 14 µM.

What about the remaining at 2 h, 2 µM [13] of the same compound?
The remaining at 2 h, 2 µM was 86.7%.

And the efflux ratio at 2 h [14]?
Its efflux ratio at 2 h is 1.72.

And the Activity (CCRF-CEM [15])?
Its Activity is “Active”.

And the remaining at 0.5 h, 2 µM [16]?
The remaining at 0.5 h, 2 µM was 97.8%.

What about the Papp A→B at 1 h [17] of the same compound?
The Papp A→B at 1 h was 8.84 ×10⁻⁶ cm/s.

And the Activity (CCRF-CEM [18])?
The Activity was 3.4%.

And the remaining at 1 h, 2 µM [19]?
Its remaining at 1 h, 2 µM is 95.8%.

What about the Activity (CCRF-CEM [20]) of the same compound?
Its Activity is 2.1%.

And the remaining at 0.25 h, 2 µM [21]?
The remaining at 0.25 h, 2 µM was 90.3%.

And the Activity (CCRF-CEM [22])?
Its Activity is “inactive”.

What about the Activity (CCRF-CEM [23]) of the same compound?
The Activity was “Active”.

And the Activity (CCRF-CEM [24])?
Its Activity is “Active”.

What about the Activity (CCRF-CEM [25]) of the same compound?
Its Activity is “Active”.

What about the IC50 [26] of the same compound?
Its IC50 is 12 µM.

And the remaining at 1 h, 2 µM [27]?
The remaining at 1 h, 2 µM was 85.6%.

And the remaining at 0.5 h, 2 µM [28]?
The remaining at 0.5 h, 2 µM was 87.4%.

And the remaining at 2 h, 2 µM [29]?
Its remaining at 2 h, 2 µM is 105%.

What about the fraction unbound at 4 h, 10 µM [30] of the same compound?
Its fraction unbound at 4 h, 10 µM is 0.334.

What about the Activity (CCRF-CEM [31]) of the same compound?
The Activity was 20%.

And the remaining at 0.25 h, 2 µM [32]?
The remaining at 0.25 h, 2 µM was 99.3%.

What about the remaining at 0.5 h, 2 µM [33] of the same compound?
The remaining at 0.5 h, 2 µM was 93.5%.

And the Activity (CCRF-CEM [34])?
Its Activity is “Active”.

What about the IC50 (CEM-DNR) of the same compound?
Its IC50 is 4 µM.

And the IC50 (U2OS)?
The IC50 was 17 µM.

And the Activity (CCRF-CEM [35])?
The Activity was 6%.

What about the Activity (CCRF-CEM [36]) of the same compound?
Its Activity is 94.5%.

And the IC50 (K562)?
The IC50 was 19 µM.

What about the remaining at 1 h, 2 µM [37] of the same compound?
The remaining at 1 h, 2 µM was 102%.

What about the Activity (CCRF-CEM [38]) of the same compound?
The Activity was “inactive”.

What about the Activity (CCRF-CEM [39]) of the same compound?
Its Activity is “Active”.

What about the IC50 (CCRF-CEM [40]) of the same compound?
Its IC50 is 3.9 µM.

What about the Activity (CCRF-CEM [41]) of the same compound?
Its Activity is “Active”.

From ChEMBL document CHEMBL5247620, “Lupane derivatives containing various aryl substituents in the position 3 have selective cytostatic effect in leukemic cancer cells including resistant phenotypes” (Eur J Med Chem, 2022)
